{"source": "patent US20230247989A1", "about": "“Synergistic Biocide Composition With a Polyglycerol Ester” (Arch UK Biocides Ltd, priority 2020, published 2023)", "tested_on": "Pseudomonas aeruginosa ATCC 15442", "test": "Suspension test for synergy: log reduction of Pseudomonas aeruginosa after 5 min contact", "format": "cell-based", "conditions": "for Log Reduction: 5 minutes contact", "experimental": "The target organism Pseudomonas aeruginosa ATCC 15442 was taken from freezer stocks and grown for 24 hours on tryptone soy agar (TSA) at 37° C. A second subculture was produced from the first and grown with the same conditions. A test suspension was then created by adding loopfuls of organism to tryptone buffered saline and adjusting the cell concentration to 1×10^8 and 5×10^8 CFU/ml using an internally established calibration curve spectrophotometer at a wavelength of 600 nm. To establish the precise CFU/ml a 1 ml aliquot was then taken from the test suspension and serially diluted down to 10^−6 and 10^−7, 1 ml of each dilution was then plated in duplicate using the pour plate method on to TSA. The plates were then incubated for 24 hours at 37° C. and enumerated.\nFor each biocide tested a series of 3 samples were prepared in sterile distilled water,\nTest sample 1—Biocide alone (to measure basic efficacy of the biocide)\nTest sample 2—Biocide in combination with polyglyceryl-10 caprylate/caprate (to measure the efficacy of the combination of biocide and polyglycerol ester)\nControl—A control sample of polyglyceryl-10 caprylate/caprate was prepared in deionized water to measure the efficacy of polyglycerol ester alone.\nEach test sample was prepared at a concentration 10% higher than that of the target concentration to account for the dilution effect from the addition of the test organism suspension during the test procedure.\nA test mixture was prepared by adding a 0.1 ml aliquot of test organism suspension to a tube followed by 0.9 ml of test sample (prepared as above). The combination was then mixed and a timer started immediately.\nUpon achieving the specified contact time the test mixture was deactivated by adding a 0.1 ml aliquot of the test mixture to 0.9 ml of neutralizing broth and the whole solution mixed. The solution was left for 5 minutes to ensure the action of the biocide was effectively neutralized.\nTo quantify the surviving number of organisms in the neutralized test mixture, 4×0.025 ml aliquots were taken and spot plated onto the surface of dried TSA. The plates were then incubated for 24 hours at 37° C.\nFor spot plating, colonies from the incubated plates were enumerated using the lower count limit of <1 and the upper count limit of >150. […] For the upper limit, if 156 colonies were counted on a plate, >150 would be recorded and 150 would be used for the calculation.\nEnumeration and Calculation of T (Test Mixture) • First, the mean average of cfu per 0.025 ml spots was established using the below calculation,\nLog Reduction Calculations (N0−T) • Before calculating the log reduction both N0 and T were converted into a logarithm base 10 value. For example;\nThe test procedure outlined above was used to test for synergy between polyglyceryl-10 caprylate/caprate (PG1000) and the various biocidal agents listed in Table 1. Varying concentrations were prepared and were tested at 5 mins for the presence of Pseudomonas aeruginosa.", "data": [{"compound": "polyglyceryl-10 caprylate/caprate [PGE Control]", "values": [{"measurement": "Log Reduction", "setting": "PGE alone 100 ppm in deionized water", "value": "<2.92"}, {"measurement": "activity (in words)", "setting": "at 100 ppm, 5 mins", "value": "little or no activity"}]}, {"compound": "CCCCCCCCCCCCN(C)C.Cl", "note": "[Dodecyledimethylammonuim chloride]", "values": [{"measurement": "Log Reduction", "setting": "biocide alone 20 ppm", "value": 3.88}]}, {"compound": "N=C(NCCCCCCNC(=N)NC(=N)Nc1ccc(Cl)cc1)NC(=N)Nc1ccc(Cl)cc1", "note": "[Chlorhexidine, reference compound]", "values": [{"measurement": "Log Reduction", "setting": "biocide alone 65 ppm", "value": 3.44}]}, {"compound": "CCCCCCCCCCCCN(CCCN)CCCN", "note": "[N-(3-aminopropyl)-N-dodecylpropane-1,3-diamine]", "values": [{"measurement": "Log Reduction", "setting": "biocide alone 50 ppm", "value": 2.98}]}, {"compound": "CC(C)O", "note": "[Isopropanol]", "values": [{"measurement": "Log Reduction", "setting": "biocide alone 16%", "value": "<2.85"}]}]}
